According to ChEMBL document CHEMBL3045870, “Some new thiazolyl thiazolidinedione derivatives as aldose reductase inhibitors” (Med Chem Res, 2007):

Molecular target: Aldo-keto reductase family 1 member B1 (Rattus norvegicus) (UniProt P07943)
Assay: Inhibition of Rattus norvegicus (rat) kidney aldose reductase using D-L-glyceraldehyde as substRattus norvegicus (rat) e assessed as decrease in NADPH level at 10^-4 M measured for 5 min by spectrophotometric analysis

SMILES | inhibition [%]
O=C1S/C(=C\c2sc(SCc3ccc(Cl)cc3)nc2Cl)C(=O)N1Cc1ccc([N+](=O)[O-])cc1 | 0
O=C1S/C(=C\c2sc(SCc3ccc(Cl)cc3)nc2Cl)C(=O)N1Cc1ccc(Cl)cc1Cl | 1.56
O=C1S/C(=C\c2sc(N3CCCCC3)nc2Cl)C(=O)N1Cc1ccc(Cl)cc1Cl | 3.27
O=C1S/C(=C\c2sc(SCc3ccc(Cl)cc3)nc2Cl)C(=O)N1Cc1ccc(F)cc1 | 0
O=C1S/C(=C\c2sc(SCc3ccc(Cl)cc3)nc2Cl)C(=O)N1Cc1ccc(Br)cc1 | 0
O=C1S/C(=C\c2sc(SCc3ccc(Cl)cc3)nc2Cl)C(=O)N1Cc1ccccc1 | 0
O=C1S/C(=C\c2sc(SCc3ccc(Cl)cc3)nc2Cl)C(=O)N1Cc1ccc(Cl)cc1 | 0

Next, values leading:

inhibition [%] | SMILES
0.62 | O=C1S/C(=C\c2sc(N3CCCCC3)nc2Cl)C(=O)N1Cc1ccc(Cl)cc1
0 | O=C1S/C(=C\c2sc(N3CCCCC3)nc2Cl)C(=O)N1Cc1ccccc1
2.49 | O=C1S/C(=C\c2sc(N3CCCCC3)nc2Cl)C(=O)N1Cc1ccc([N+](=O)[O-])cc1
0.62 | O=C1S/C(=C\c2sc(N3CCCCC3)nc2Cl)C(=O)N1Cc1ccc(Br)cc1
0 | O=C1S/C(=C\c2sc(N3CCCCC3)nc2Cl)C(=O)N1Cc1ccc(F)cc1
